pIC50: −log10 of the molar value.
Tests used:
[1] = biological target: Protein arginine N-methyltransferase 1 (Homo sapiens, UniProt Q99873); assay: Inhibition of PRMT1 (unknown origin) by AlphaLISA assay
[2] = biological target: T1, Histone-arginine methyltransferase CARM1 (Homo sapiens, UniProt Q86X55); assay: Inhibition of CARM1 (unknown origin) using histone H3 (21 to 44 residues) and SAM as substrates by AlphaLISA assay
T1 sequence (Q86X55 whole entry): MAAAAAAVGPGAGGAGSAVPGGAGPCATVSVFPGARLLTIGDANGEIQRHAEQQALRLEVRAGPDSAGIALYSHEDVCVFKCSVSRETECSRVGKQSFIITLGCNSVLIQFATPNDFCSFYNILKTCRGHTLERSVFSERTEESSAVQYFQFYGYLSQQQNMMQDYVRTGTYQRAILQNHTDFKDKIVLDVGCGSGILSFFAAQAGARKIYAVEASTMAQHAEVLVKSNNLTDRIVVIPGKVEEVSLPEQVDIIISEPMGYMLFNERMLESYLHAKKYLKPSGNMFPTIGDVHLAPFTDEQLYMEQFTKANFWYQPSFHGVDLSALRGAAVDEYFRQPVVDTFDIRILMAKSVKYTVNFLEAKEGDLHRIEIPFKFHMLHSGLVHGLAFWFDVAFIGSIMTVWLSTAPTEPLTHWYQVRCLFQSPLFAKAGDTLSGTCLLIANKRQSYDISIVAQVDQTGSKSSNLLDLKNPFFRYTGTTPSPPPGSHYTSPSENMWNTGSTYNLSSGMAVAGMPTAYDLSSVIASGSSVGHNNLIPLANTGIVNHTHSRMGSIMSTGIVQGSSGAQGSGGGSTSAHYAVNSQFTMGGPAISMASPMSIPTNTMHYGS

HCT-116 [3] = assay: Antiproliferative activity against human HCT-116 cells assessed as inhibition of cell growth by CCK-8 assay; assay type: functional, cell-based
[4] = biological target: T1, Histone-arginine methyltransferase CARM1; assay: Inhibition of N-terminal FLAG tagged human PRMT4 (2 to end residues) expressed in FreeStyle 293-F cells using SAM and rHistone H3.1 as substrate preincubated for 60 mins followed by substrate addition and measured after 40 mins by Topcount reader based analysis
[5] = biological target: T2, Protein arginine N-methyltransferase 6 (Homo sapiens, UniProt Q96LA8); assay: Inhibition of N-terminal His tagged human recombinant PRMT6 (2 to 375 residues) expressed in Escherichia coli using SAM and Histone (1 to 21 residues) as substrate preincubated for 60 mins followed by substrate addition and measured after 40 mins by Topcount reader based analysis
[6] = biological target: T3, Protein arginine N-methyltransferase 8 (Homo sapiens, UniProt Q9NR22); assay: Inhibition of PRMT8 (unknown origin) using SAM and Histone (1 to 21 residues) as substrate preincubated for 60 mins followed by substrate addition and measured after 40 mins by Topcount reader based analysis
[7] = biological target: T1, Histone-arginine methyltransferase CARM1; assay: Inhibition of CARM1 (unknown origin)
HCT-116 [8] = assay: Potency index, ratio of GSK3368715 IC50 to test compound IC50 for antiproliferative activity against human HCT-116 cells assessed as inhibition of cell growth by CCK-8 assay; assay type: functional
[9] = biological target: T2, Protein arginine N-methyltransferase 6; assay: Inhibition of PRMT6 (unknown origin) by AlphaLISA assay
[10] = biological target: T3, Protein arginine N-methyltransferase 8; assay: Inhibition of PRMT8 (unknown origin) by AlphaLISA assay
[11] = biological target: Protein arginine N-methyltransferase 3 (Homo sapiens, UniProt O60678); assay: Inhibition of PRMT3 (unknown origin) by AlphaLISA assay
[12] = biological target: Protein arginine N-methyltransferase 5 (Homo sapiens, UniProt O14744); assay: Inhibition of PRMT5 (unknown origin) by AlphaLISA assay
HCT-116 [13] = assay: Induction of apoptosis in human HCT-116 cells assessed as late apoptotic cells at 0.63 uM measured after 72 hrs by Annexin V-FITC/PI staining based flow cytometry analysis (reference value: 1.53%); assay type: functional
HCT-116 [14] = assay: Induction of apoptosis in human HCT-116 cells assessed as dead cells at 0.63 uM measured after 72 hrs by Annexin V-FITC/PI staining based flow cytometry analysis (reference value: 1.07%); assay type: functional
HCT-116 [15] = assay: Induction of apoptosis in human HCT-116 cells assessed as late apoptotic cells at 1.25 uM measured after 72 hrs by Annexin V-FITC/PI staining based flow cytometry analysis (reference value: 1.53%); assay type: functional
HCT-116 [16] = assay: Induction of apoptosis in human HCT-116 cells assessed as dead cells at 1.25 uM measured after 72 hrs by Annexin V-FITC/PI staining based flow cytometry analysis (reference value: 1.07%); assay type: functional
HCT-116 [17] = assay: Induction of apoptosis in human HCT-116 cells assessed as late apoptotic cells at 2.5 uM measured after 72 hrs by Annexin V-FITC/PI staining based flow cytometry analysis (reference value: 1.53%); assay type: functional
HCT-116 [18] = assay: Induction of apoptosis in human HCT-116 cells assessed as dead cells at 2.5 uM measured after 72 hrs by Annexin V-FITC/PI staining based flow cytometry analysis (reference value: 1.07%); assay type: functional
HCT-116 [19] = assay: Induction of apoptosis in human HCT-116 cells assessed as late apoptotic cells at 5 uM measured after 72 hrs by Annexin V-FITC/PI staining based flow cytometry analysis (reference value: 1.53%); assay type: functional
HCT-116 [20] = assay: Induction of apoptosis in human HCT-116 cells assessed as dead cells at 5 uM measured after 72 hrs by Annexin V-FITC/PI staining based flow cytometry analysis (reference value: 1.07%); assay type: functional
in vitro [21] = conditions: mouse, liver microsomes
Description: Metabolic stability in mouse liver microsomes assessed as half life by LC-MS/MS analysis

in vitro [22] = conditions: mouse, liver microsomes; remark: listed apart in the source
Description: Metabolic stability in mouse liver microsomes assessed as microsomal intrinsic clearance by LC-MS/MS analysis

in vitro [23] = conditions: mouse, liver microsomes; remark: listed apart in the source
Description: Metabolic stability in mouse liver microsomes assessed as intrinsic clearance by LC-MS/MS analysis

T2 sequence (Q96LA8 whole entry, the tested form may be a part): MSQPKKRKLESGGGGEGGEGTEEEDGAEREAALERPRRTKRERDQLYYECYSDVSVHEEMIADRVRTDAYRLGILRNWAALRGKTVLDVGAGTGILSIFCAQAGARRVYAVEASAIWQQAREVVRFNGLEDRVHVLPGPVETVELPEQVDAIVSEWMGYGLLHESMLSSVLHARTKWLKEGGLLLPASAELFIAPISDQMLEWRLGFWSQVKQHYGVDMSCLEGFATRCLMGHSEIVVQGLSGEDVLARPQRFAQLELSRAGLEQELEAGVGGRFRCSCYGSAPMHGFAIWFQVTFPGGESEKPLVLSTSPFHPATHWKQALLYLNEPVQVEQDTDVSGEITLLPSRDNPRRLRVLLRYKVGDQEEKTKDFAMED
T3 sequence (Q9NR22 whole entry, the tested form may be a part): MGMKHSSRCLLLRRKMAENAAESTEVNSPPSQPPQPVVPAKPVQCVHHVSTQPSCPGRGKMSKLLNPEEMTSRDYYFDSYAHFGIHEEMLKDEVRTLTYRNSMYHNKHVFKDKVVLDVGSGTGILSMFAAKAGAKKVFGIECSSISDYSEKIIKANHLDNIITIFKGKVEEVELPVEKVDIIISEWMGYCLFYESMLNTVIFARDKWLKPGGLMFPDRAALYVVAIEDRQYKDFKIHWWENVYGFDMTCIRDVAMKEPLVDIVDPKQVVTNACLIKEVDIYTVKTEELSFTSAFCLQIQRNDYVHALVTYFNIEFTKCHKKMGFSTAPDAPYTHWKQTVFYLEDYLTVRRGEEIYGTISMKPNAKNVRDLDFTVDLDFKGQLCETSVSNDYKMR
Sequence of Protein arginine N-methyltransferase 1 (Q99873 whole entry, the tested form may be a part): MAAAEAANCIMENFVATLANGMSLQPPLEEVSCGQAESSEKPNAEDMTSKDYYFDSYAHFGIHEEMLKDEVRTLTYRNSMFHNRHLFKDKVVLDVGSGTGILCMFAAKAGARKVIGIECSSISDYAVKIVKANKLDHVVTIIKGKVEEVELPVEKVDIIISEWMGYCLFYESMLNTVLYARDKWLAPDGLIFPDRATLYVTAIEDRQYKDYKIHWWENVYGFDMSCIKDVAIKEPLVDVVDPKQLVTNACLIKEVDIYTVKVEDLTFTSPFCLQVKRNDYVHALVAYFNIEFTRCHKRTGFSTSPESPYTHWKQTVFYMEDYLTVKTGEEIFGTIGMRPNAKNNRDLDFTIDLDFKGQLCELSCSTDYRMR
Sequence of Protein arginine N-methyltransferase 5 (O14744 whole entry): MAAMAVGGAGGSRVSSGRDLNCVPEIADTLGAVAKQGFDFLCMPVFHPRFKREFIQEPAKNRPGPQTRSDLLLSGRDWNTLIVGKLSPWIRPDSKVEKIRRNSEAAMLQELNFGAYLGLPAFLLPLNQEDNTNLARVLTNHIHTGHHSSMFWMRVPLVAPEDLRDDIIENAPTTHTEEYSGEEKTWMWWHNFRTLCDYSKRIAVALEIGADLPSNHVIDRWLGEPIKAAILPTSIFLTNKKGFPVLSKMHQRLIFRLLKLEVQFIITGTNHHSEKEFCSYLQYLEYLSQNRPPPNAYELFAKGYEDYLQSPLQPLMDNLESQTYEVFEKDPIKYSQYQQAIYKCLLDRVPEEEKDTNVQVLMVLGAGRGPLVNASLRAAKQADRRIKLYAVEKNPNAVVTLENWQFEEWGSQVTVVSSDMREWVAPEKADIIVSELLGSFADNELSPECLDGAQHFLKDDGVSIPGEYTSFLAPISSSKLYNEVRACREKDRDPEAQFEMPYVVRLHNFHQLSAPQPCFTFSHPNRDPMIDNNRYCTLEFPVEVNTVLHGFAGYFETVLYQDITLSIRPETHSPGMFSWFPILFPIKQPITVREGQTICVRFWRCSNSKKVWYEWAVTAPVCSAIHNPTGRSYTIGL
Sequence of Protein arginine N-methyltransferase 3 (O60678 whole entry): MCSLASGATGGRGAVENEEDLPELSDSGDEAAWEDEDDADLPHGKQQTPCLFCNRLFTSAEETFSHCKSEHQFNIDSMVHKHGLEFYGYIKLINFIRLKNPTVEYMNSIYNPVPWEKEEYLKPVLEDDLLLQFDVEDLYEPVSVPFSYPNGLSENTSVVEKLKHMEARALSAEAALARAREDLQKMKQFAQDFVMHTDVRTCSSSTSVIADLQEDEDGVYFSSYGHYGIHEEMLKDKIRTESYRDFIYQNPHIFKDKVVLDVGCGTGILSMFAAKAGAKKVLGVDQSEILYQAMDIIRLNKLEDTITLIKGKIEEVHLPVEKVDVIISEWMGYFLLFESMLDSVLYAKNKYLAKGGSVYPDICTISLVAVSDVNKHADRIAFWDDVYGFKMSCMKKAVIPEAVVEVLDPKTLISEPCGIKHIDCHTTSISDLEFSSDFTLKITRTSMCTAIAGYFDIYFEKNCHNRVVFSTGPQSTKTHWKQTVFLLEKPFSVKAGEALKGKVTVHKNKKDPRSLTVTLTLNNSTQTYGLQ

SMILES | pIC50 [1] | pIC50 [2] | pIC50 (HCT-116 [3]) | Ratio IC50 (HCT-116 [8]) | pIC50 [9] | pIC50 [10] | pIC50 [11] | pIC50 [12] | half-life (in vitro [21]) [h] | microsomal CLint (in vitro [22]) [µL/min/mg] | CLint scaled (in vitro [23]) [mL/min/kg] | other results
CCOCC1(COCC)CCC(Oc2ccccc2CN(C)C[C@H](O)CNC)CC1 | 6.55 | 7.43 |  |  |  |  |  |  |  |  |  | 
CCOCC1(COCC)CCC(c2n[nH]cc2CN(C)CCNC)CC1 |  | 7.92 | 4.42 |  |  |  |  |  |  |  |  | pIC50 [4]: 8.77; pIC50 [5]: 8.77; pIC50 [6]: 8.77
CNCCN1CCC(c2ccc3c(F)c(-c4ccccc4OC)[nH]c3c2)CC1 |  |  |  |  |  |  |  |  |  |  |  | pIC50 [7]: 7.52
CCOCC1(COCC)CCC(Oc2ccccc2CN(C)C[C@@H](O)CNC)CC1 | 7.25 | 8.05 | 5.50 | >10 | 8.00 | 7.51 | 5.58 | < 4.00 | 3.62 | 6.4 | 25.3 | Activity (HCT-116 [13]): 0.87%; Activity (HCT-116 [14]): 1.32%; Activity (HCT-116 [15]): 1.09%; Activity (HCT-116 [16]): 1.83%; Activity (HCT-116 [17]): 2.13%; Activity (HCT-116 [18]): 1.52%; Activity (HCT-116 [19]): 1.3%; Activity (HCT-116 [20]): 2.14%
CNCCN(C)Cc1ccccc1OC1CCC(COC)(COC)CC1.Cl.Cl | 7.25 | 8.15 | 5.53 | >10 | 7.92 | 7.62 | 6.31 | < 4.00 | 0.76 | 30.4 | 120 | 
